This note sets out measurements from ChEMBL document CHEMBL1201862, “PubChem BioAssay data set” (2004).

A short description of one assay: cells. The assay is classed as functional.
Assay [1] concerns the target T1, Corticotropin-releasing factor receptor 2/Corticotropin-releasing factor-binding protein (Homo sapiens, UniProt P24387+Q13324).
T1 sequence (Q13324 whole entry): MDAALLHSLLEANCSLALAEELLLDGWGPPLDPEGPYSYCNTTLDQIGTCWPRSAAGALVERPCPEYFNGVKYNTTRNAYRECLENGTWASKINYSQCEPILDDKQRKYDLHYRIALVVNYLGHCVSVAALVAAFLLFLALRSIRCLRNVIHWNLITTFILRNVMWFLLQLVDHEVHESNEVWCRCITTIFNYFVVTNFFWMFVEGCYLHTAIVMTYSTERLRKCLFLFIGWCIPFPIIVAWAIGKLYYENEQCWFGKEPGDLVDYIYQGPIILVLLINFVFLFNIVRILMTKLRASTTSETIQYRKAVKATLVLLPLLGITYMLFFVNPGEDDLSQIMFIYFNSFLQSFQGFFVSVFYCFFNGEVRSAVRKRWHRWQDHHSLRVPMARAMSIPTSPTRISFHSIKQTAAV
T1 sequence (P24387 whole entry): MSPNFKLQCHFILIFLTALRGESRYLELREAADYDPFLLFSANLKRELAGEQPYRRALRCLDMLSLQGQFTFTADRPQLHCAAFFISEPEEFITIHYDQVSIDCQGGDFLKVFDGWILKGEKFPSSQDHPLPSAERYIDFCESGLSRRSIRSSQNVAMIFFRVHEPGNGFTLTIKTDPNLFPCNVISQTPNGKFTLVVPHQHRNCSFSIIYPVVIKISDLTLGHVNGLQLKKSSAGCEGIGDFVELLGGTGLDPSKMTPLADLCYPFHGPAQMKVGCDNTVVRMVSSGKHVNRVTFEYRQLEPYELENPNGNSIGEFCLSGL
Description: activators of CRF receptor 2 with binding protein – uHTS hits, confirmation (AID 602473). The assay is classed as functional. Particulars: read-out: EC50_Mean.

Assay [2] addresses T1, Corticotropin-releasing factor receptor 2/Corticotropin-releasing factor-binding protein. Description: Dose Response confirmation of uHTS hits for small molecule antagonists of the CRF-binding protein and CRF-R2 receptor complex. Particulars: read-out: IC50_Mean. Format: functional.
Assay [3] is described as follows: Luminescence Cell-Based Dose Confirmation HTS to Identify Inhibitors of Platelet Dense Granule Release. [Related pubchem assays: 1663 (Primary HTS), 1678 (Summary of Project)]. The assay is classed as functional.
Assay [4] has as its target Luciferin 4-monooxygenase (Photinus pyralis, UniProt P08659). The assay can be described thus: firefly luciferase enzyme inhibitors, dose response, biochemical, luminescence (AID 1891).
Assay [5] can be described thus: Luminescence Cell-Based Dose Response HTS to Identify Activators of Luciferase Translation or Activity in H4 […] Cells. [Related pubchem assays: 1829 (Project Summary), 1814 (Primary HTS)]. The assay is classed as functional.
The next assay has as its system H4. The assay can be described thus: Luminescence Cell-Based Dose Response HTS to Identify Activators of 5'UTR Stem-Loop Driven Prion Protein mRNA Translation in H4 Neuroglioblastoma Cells. [Related pubchem assays: 1829 (Project Summary), 1814 (Primary HTS)]. Format: functional. Particulars: Homo sapiens.
The subject of a further assay is INS1. The assay can be described thus: beta cell apoptosis inhibitors, cytokine rescue, dose response, luminescence, retest (AID 449756).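 Also: cell death triggered by IL-1 beta plus TNF-alpha plus IFN-gamma mixture; protective hits raise ATP signal compared with cytokine alone wells.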 The assay is classed as functional, cell-based. Particulars: Rattus norvegicus.
Assay [6] in a line: growth suppression of PTEN-null colon cells, dose response, cell-based, HCT116 PTEN knockout (AID 1047).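 Also: HCT116 colon tumor cells with PTEN knocked out; cells exposed to compound for 60 hours before readout; potency for loss of cell viability measured by luminescence.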 The assay is classed as functional.
Assay [7] deals with T2, Replicative DNA helicase DnaB (Mycobacterium tuberculosis, UniProt P9WMR3).
T2 sequence (P9WMR3 whole entry): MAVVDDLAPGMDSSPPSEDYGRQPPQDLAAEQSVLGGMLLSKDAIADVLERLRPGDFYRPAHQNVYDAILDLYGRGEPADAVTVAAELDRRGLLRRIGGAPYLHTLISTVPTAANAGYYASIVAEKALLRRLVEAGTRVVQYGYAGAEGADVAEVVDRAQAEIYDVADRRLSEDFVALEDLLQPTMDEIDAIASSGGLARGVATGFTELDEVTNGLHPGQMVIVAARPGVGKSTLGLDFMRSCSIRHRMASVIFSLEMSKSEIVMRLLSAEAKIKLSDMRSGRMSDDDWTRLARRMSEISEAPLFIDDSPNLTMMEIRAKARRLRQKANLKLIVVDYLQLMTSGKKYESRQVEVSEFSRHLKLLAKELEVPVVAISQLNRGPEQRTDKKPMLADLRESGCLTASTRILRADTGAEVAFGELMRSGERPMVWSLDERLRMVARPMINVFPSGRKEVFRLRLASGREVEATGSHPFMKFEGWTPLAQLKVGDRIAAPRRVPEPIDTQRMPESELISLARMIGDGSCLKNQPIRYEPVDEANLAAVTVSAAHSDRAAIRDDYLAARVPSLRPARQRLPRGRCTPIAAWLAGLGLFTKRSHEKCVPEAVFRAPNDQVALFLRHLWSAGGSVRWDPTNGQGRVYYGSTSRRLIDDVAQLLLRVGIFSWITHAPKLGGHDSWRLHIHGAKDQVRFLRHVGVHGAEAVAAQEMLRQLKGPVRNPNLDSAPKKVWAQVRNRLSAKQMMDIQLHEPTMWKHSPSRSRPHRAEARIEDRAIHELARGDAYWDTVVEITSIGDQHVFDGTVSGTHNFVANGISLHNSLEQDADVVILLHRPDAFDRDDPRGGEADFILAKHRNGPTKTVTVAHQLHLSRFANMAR
Description: DnaB intein splicing inhibitors, dose response, biochemical, cell-free fluorescence (AID 449749). Format: functional.

The next assay has as its target T3, Protein RecA (Mycobacterium tuberculosis, UniProt P9WHJ3).
T3 sequence (P9WHJ3 whole entry): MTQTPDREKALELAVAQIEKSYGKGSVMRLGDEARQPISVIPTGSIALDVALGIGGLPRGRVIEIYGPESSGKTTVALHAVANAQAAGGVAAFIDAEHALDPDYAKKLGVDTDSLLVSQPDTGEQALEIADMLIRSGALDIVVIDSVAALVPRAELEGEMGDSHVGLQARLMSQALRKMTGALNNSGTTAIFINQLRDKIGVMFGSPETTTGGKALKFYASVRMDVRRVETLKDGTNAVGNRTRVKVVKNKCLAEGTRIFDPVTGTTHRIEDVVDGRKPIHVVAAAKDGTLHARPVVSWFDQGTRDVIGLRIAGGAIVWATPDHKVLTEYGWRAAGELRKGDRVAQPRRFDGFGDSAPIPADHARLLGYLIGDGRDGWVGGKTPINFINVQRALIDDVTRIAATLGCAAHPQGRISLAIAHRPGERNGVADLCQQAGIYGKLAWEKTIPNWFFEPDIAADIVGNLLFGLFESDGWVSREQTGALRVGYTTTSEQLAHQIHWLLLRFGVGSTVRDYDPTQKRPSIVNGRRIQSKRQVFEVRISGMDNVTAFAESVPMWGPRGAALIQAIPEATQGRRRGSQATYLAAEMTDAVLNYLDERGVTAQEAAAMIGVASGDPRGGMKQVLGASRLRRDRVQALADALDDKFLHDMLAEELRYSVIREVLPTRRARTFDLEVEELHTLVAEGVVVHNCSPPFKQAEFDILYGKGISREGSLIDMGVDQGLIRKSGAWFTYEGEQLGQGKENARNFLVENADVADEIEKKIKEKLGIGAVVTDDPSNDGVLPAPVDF
Description: Fluorescence Cell-Free Homogeneous Dose Retest to Identify Inhibitors of RecA-Intein Splicing Activity. [Related pubchem assays (depositor defined):AID2097, AID2223, AID489010, AID492950]. Format: functional.

The nature of assay [8]: Luminescence Cell-Based Dose Response HTS to Identify Inhibitors of 5'UTR Stem-Loop Driven Prion Protein mRNA Translation in H4 Neuroglioblastoma Cells. [Related pubchem assays: 1827 (Project Summary), 1813 (Primary HTS)]. Format: functional.
The nature of assay [9]: inhibitors of SNCA 5'UTR-driven reporter translation, confirmation, H4 neuroglioma cells, luminescence (AID 1988). Format: functional, cell-based.
Assay [10] is described as follows: inhibitors of firefly luciferase expression or activity, dose response, H4 neuroglioma cells, luminescence (AID 1990). Format: functional, cell-based.
Assay [11] can be described thus: cytotoxicity toward NIH3T3 fibroblasts, dose response, counter-screen, cell-based, ATP luminescence, mouse fibroblasts (AID 2010).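 Also: cells exposed to compound for about 90 hours before reading.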 The assay is classed as functional.
The nature of assay [12]: inhibitors of intracellular T. cruzi replication, confirmation, NIH3T3 host cells, beta-gal luminescence (AID 2044).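 Also: intracellular parasites grown in NIH/3T3 mouse fibroblasts as host cells; luminescent beta-galactosidase reporter signal from transgenic T. cruzi replicating inside host cells; inhibitors lower the luminescence signal.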 Format: functional, cell-based.
Assay [13] has as its system Streptococcus sp. 'group A'. The assay can be described thus: growth inhibition of control SK(-) GAS strain, dose response, counter-screen for streptokinase expression inhibitor project, luminescence, kanamycin, BacTiterGlo, confirmation (AID 1900). The assay is classed as functional, organism-based. On the technique in general: Counterscreens check selectivity or assay interference.

For a further assay, the system named is Streptococcus. The assay can be described thus: Group A Streptococcus viability loss, dose response, counter-screen for streptokinase expression inhibitor project, luminescence, BacTiterGlo (AID 1915).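 Also: potency for reduction of bacterial viability or growth.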 The assay is classed as functional, organism-based.
The next assay addresses Cytochrome P450 2D6 (Homo sapiens, UniProt P10635).
Assay [14] can be described thus: Luminescence Cell-Based Dose Retest to Confirm Inhibitors of Cancer Stem Cells. [Related pubchem assays (depositor defined):AID2717, AID2721]. Format: functional. Particulars: Homo sapiens.

SMILES strings stand for the structures. Activity calls are given as the source filed them. Rule as the data show it, for most assays here: actives have a measured EC50 and inactives only a lower limit. A value given as a limit tells only on which side of the number the result lay.

Sequence of Luciferin 4-monooxygenase (P08659 whole entry): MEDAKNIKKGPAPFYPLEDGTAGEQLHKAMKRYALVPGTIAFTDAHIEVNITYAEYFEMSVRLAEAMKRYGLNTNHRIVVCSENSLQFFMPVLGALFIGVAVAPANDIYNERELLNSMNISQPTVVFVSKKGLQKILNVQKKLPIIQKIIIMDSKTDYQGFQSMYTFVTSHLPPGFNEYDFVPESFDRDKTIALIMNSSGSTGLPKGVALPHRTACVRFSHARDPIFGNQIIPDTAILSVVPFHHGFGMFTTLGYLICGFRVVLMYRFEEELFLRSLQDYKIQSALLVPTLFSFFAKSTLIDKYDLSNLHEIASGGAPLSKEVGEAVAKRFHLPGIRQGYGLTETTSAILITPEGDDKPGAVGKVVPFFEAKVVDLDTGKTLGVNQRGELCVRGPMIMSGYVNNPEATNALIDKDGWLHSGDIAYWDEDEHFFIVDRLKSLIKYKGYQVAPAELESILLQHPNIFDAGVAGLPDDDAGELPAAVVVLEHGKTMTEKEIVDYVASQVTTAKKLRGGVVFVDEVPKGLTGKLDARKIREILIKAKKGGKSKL
Sequence of Cytochrome P450 2D6 (P10635 whole entry): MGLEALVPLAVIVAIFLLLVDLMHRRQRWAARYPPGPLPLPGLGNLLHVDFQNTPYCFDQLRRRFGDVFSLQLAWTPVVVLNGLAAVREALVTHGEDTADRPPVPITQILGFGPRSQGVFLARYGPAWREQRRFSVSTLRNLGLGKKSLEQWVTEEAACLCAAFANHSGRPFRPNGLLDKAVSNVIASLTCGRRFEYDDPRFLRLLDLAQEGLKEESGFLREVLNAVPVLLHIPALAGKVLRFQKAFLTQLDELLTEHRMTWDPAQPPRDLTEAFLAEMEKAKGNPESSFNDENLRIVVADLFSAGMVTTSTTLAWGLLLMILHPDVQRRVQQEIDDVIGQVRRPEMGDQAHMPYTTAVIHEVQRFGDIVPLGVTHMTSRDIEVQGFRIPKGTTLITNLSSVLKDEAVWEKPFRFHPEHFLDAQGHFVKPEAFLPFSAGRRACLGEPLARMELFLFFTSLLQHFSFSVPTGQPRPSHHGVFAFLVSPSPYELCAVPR

In the case of `COc1ccc(C(=O)C2CCCN(C(=O)c3ccc(CSC)o3)C2)cc1F` (centres undefined), the IC50 in the assay “cells” is 41.5 µM (active).

Regarding `NNC(=S)NC1CCS(=O)(=O)C1` (centres undefined), the EC50 in [1] is > 53 µM (inactive). Besides, the IC50 in assay [2] was > 47.1 µM (inactive).

For `COc1cc(CNc2ccccc2SC)ccc1O`, the EC50 in assay [1] was > 53 µM (inactive); in assay [3], > 112 µM (not active); in assay [4], > 112 µM (not active). Further, in assay [2], the IC50 is > 47.1 µM (inactive).

Consider `COc1cccc(C2CCCN2Cc2nc(-c3cnccn3)no2)c1` (centres undefined), for which the EC50 in assay [1] is > 53 µM (inactive). In addition, the IC50 in assay [2] was > 47.1 µM (inactive).

Take `Cc1csc(NC(=O)c2nc3nccc(C)n3n2)n1`: the EC50 was 36.1 µM (active) in assay [5] and 37.4 µM (active) in the assay with H4.

For the compound `Cc1ccc(CCNC(=O)C2CCC(=O)N2C2CCCC2)cc1` (centres undefined), in [1], the EC50 was > 53 µM (inactive). Besides, the IC50 in assay [2] is > 47.1 µM (inactive).

Consider `O=S1(=O)CCN(Cc2csc(-c3cccs3)n2)CC1`, for which the concentration at half-maximal activity (AC50) (commonly the midpoint of the concentration-response curve, whichever way the signal moves) in the assay with INS1 was 145 µM (active). The EC50 in [3] is 17.9 µM (active); in [4] it was > 112 µM (not active).

`Cc1n[nH]c2c1C(C1CC=CCC1)C(C#N)=C(N)O2` (centres undefined): the EC50 in assay [6] was 34.7 µM (active).

With `CCOC(=O)c1c(CCl)nc2ccccc2c1-c1ccccc1`, the AC50 in [7] is 9.56 µM (active). At Protein RecA, the EC50 was 12.6 µM (active).

On to `O=C(Nc1ccccc1SCC1CSc2nc3ccccc3c(=O)n21)c1ccccc1` (centres undefined), for which the EC50 in [1] was > 53 µM (inactive). The IC50 in assay [2] is > 47.1 µM (inactive).

For `Cc1n[nH]c2c1C(c1cccs1)C(C#N)=C(N)O2` (centres undefined), the AC50 in assay [7] is 24.7 µM (active). Moreover, the EC50 at Protein RecA was 4.74 µM (active).

In the case of `Cc1ccccc1OCC(=O)OCC(=O)c1c[nH]c2ccccc12`, the EC50 in assay [1] is > 53 µM (inactive). In addition, the IC50 in assay [2] was > 47.1 µM (inactive).

In the case of `CC1CCCCC1NC(=O)NC(=O)CCl` (centres undefined), the AC50 in assay [7] is 22.5 µM (active). The EC50 on Protein RecA was 12.3 µM (active).

On to `COC(=O)c1ccccc1NC(=O)C(C)n1nc(C)c2c(C)n(-c3ccccc3)nc2c1=O` (centres undefined), for which the EC50 in assay [8] was 20.1 µM (active); in [9], 22.9 µM (active); at Protein RecA, > 380 µM (inactive); in assay [10], 25.5 µM (active). The AC50 in assay [7] is 208 µM (active).

Turning to `CCCN(CCC)C(=O)c1cc([N+](=O)[O-])cc2c1-c1ccc([N+](=O)[O-])cc1C2=C(C#N)C#N`, the EC50 in assay [11] was 10.7 µM (active); in assay [12], 1.62 µM (active). The AC50 with INS1 is 6.7 µM (active).

Consider `C=C[C@H](Cc1ccccc1)N(Cc1ccccc1)S(=O)(=O)N(Cc1ccccc1)[C@H](C=C)Cc1ccccc1`, for which the AC50 in the assay on INS1 is 4.47 µM (active).

Consider `COc1cc(C(C(=O)NC2CCCCC2)N(CCN2CCOCC2)C(=O)C2COc3ccccc3O2)cc(OC)c1OC` (centres undefined), for which the AC50 in assay [7] is > 380 µM (inactive). Moreover, the EC50 on Protein RecA is > 380 µM (inactive).

Regarding `O=C1/C(=C/c2cccc([N+](=O)[O-])c2)CCc2ccccc21`, the AC50 in [7] was 8.57 µM (active). At Protein RecA, the EC50 was 13.3 µM (active).

Regarding `Cc1ccc(-c2nn(-c3ccccc3)cc2/C=N/NC(=O)c2ccc3c(c2)OCO3)cc1`, in the assay with INS1, the AC50 was 5.54 µM (active).

Consider `O=C(CNc1ccc(F)cc1)N/N=C/c1c(O)ccc2ccccc12`, for which, in the assay with INS1, the AC50 was 2.94 µM (active). Besides, the EC50 in assay [13] was 0.846 µM (active); in the assay with Streptococcus, 1.67 µM (active).

Consider `Cc1cccc(-n2c(C)cc(/C=N/n3cnnc3)c2C)c1`, for which the AC50 in the assay on INS1 was 14.1 µM (active).

Take `CCCc1c(-c2ccc(O)cc2)nn(-c2ccc(O)cc2)c1-c1ccc(O)cc1` [PROPYLPYRAZOLETRIOL]: the figures for the AC50 (in assay [7]; at Cytochrome P450 2D6; in assay [14]) were 2.92 µM (active), 12.6 µM (inconclusive) and 3.78 µM (active), respectively. Also, on Protein RecA, the EC50 was 4.88 µM (active).
